Test results as given in ChEMBL document CHEMBL2440076, “New triarylpyrazoles as broad-spectrum anticancer agents: design, synthesis, and biological evaluation” (Eur J Med Chem, 2013).

Legend:
OVCAR-4 = test: Growth inhibition of human OVCAR4 cells assessed as cell growth at 10 uM after 48 hrs by sulforhodamine B assay; assay type: functional; conditions: OVCAR-4, 48 h, read-out: Activity
786-0 [1] = test: Growth inhibition of human 786-0 cells after 48 hrs by sulforhodamine B assay; assay type: functional; conditions: 786-0, 48 h; for CC50: read-out: LC50 (the source's name)
K562 [2] = test: Growth inhibition of human K562 cells after 48 hrs by sulforhodamine B assay; assay type: functional; conditions: K562, 48 h; for CC50: read-out: LC50 (the source's name)
M14 = test: Growth inhibition of human M14 cells assessed as cell growth at 10 uM after 48 hrs by sulforhodamine B assay; assay type: functional; conditions: M14, 48 h, read-out: Activity
[3] = Growth inhibition of human Hs 578T cells assessed as cell growth at 10 uM after 48 hrs by sulforhodamine B assay; assay type: functional; conditions: read-out: Activity
SK-OV-3 = test: Growth inhibition of human SKOV3 cells assessed as cell growth at 10 uM after 48 hrs by sulforhodamine B assay; assay type: functional; conditions: SK-OV-3, 48 h, read-out: Activity
IGROV-1 = test: Growth inhibition of human IGROV1 cells after 48 hrs by sulforhodamine B assay; assay type: functional; conditions: IGROV-1, 48 h
MDA-MB-468 = test: Growth inhibition of human MDA-MB-468 cells after 48 hrs by sulforhodamine B assay; assay type: functional, cell-based; conditions: MDA-MB-468, 48 h; for CC50: read-out: LC50 (the source's name)
MDA-MB-231 [4] = test: Growth inhibition of human MDA-MB-231 cells after 48 hrs by sulforhodamine B assay; assay type: functional; conditions: MDA-MB-231, 48 h
HCT-15 = test: Growth inhibition of human HCT15 cells after 48 hrs by sulforhodamine B assay; assay type: functional; conditions: HCT-15, 48 h
MDA-MB-231 [5] = test: Growth inhibition of human MDA-MB-231 cells assessed as cell growth at 10 uM after 48 hrs by sulforhodamine B assay; assay type: functional; conditions: MDA-MB-231, 48 h, read-out: Activity
SK-MEL-28 = test: Growth inhibition of human SK-MEL-28 cells after 48 hrs by sulforhodamine B assay; assay type: functional; conditions: SK-MEL-28, 48 h
NCI-H322M = test: Growth inhibition of human NCI-H322M cells assessed as cell growth at 10 uM after 48 hrs by sulforhodamine B assay; assay type: functional; conditions: read-out: Activity
HOP-62 = test: Growth inhibition of human HOP62 cells after 48 hrs by sulforhodamine B assay; assay type: functional; conditions: HOP-62, 48 h; for CC50: read-out: LC50 (the source's name)
UO-31 [6] = test: Growth inhibition of human UO31 cells assessed as cell growth at 10 uM after 48 hrs by sulforhodamine B assay; assay type: functional; conditions: UO-31, 48 h, read-out: Activity
UO-31 [7] = test: Growth inhibition of human UO31 cells after 48 hrs by sulforhodamine B assay; assay type: functional; conditions: UO-31, 48 h; for CC50: read-out: LC50 (the source's name)
A498 = test: Growth inhibition of human A498 cells assessed as cell growth at 10 uM after 48 hrs by sulforhodamine B assay; assay type: functional; conditions: A498, 48 h, read-out: Activity
786-0 [8] = test: Growth inhibition of human 786-0 cells assessed as cell growth at 10 uM after 48 hrs by sulforhodamine B assay; assay type: functional; conditions: 786-0, 48 h, read-out: Activity
LOX IMVI = test: Growth inhibition of human LOXIMVI cells after 48 hrs by sulforhodamine B assay; assay type: functional
OVCAR-8 = test: Growth inhibition of human OVCAR8 cells assessed as cell growth at 10 uM after 48 hrs by sulforhodamine B assay; assay type: functional; conditions: OVCAR-8, 48 h, read-out: Activity
[9] = Growth inhibition of human HCC2998 cells after 48 hrs by sulforhodamine B assay; assay type: functional; conditions: HCC 2998, 48 h; for CC50: read-out: LC50 (the source's name)
SNB-19 = test: Growth inhibition of human SNB19 cells assessed as cell growth at 10 uM after 48 hrs by sulforhodamine B assay; assay type: functional; conditions: SNB-19, 48 h, read-out: Activity
K562 [10] = test: Growth inhibition of human K562 cells assessed as cell growth at 10 uM after 48 hrs by sulforhodamine B assay; assay type: functional; conditions: K562, 48 h, read-out: Activity
T47D [11] = test: Growth inhibition of human T47D cells assessed as cell growth at 10 uM after 48 hrs by sulforhodamine B assay; assay type: functional; conditions: read-out: Activity
MDA-MB-435 [12] = test: Growth inhibition of human MDA-MB-435 cells assessed as cell growth at 10 uM after 48 hrs by sulforhodamine B assay; assay type: functional; conditions: MDA-MB-435, 48 h, read-out: Activity
T47D [13] = test: Growth inhibition of human T47D cells after 48 hrs by sulforhodamine B assay; assay type: functional; conditions: for CC50: read-out: LC50 (the source's name)
HL-60(TB) = test: Growth inhibition of human HL-60(TB) cells after 48 hrs by sulforhodamine B assay; assay type: functional; conditions: HL-60, 48 h; for CC50: read-out: LC50 (the source's name)
RPMI-8226 = test: Growth inhibition of human RPMI8226 cells after 48 hrs by sulforhodamine B assay; assay type: functional, cell-based; conditions: RPMI-8226, 48 h; for CC50: read-out: LC50 (the source's name)
DU-145 = test: Growth inhibition of human DU145 cells assessed as cell growth at 10 uM after 48 hrs by sulforhodamine B assay; assay type: functional; conditions: DU-145, 48 h, read-out: Activity
COLO 205 = test: Growth inhibition of human COLO205 cells after 48 hrs by sulforhodamine B assay; assay type: functional; conditions: COLO 205, 48 h
ACHN = test: Growth inhibition of human ACHN cells assessed as cell growth at 10 uM after 48 hrs by sulforhodamine B assay; assay type: functional; conditions: read-out: Activity
SF-295 = test: Growth inhibition of human SF295 cells after 48 hrs by sulforhodamine B assay; assay type: functional, cell-based; conditions: SF-295, 48 h; for CC50: read-out: LC50 (the source's name)
MDA-MB-435 [14] = test: Growth inhibition of human MDA-MB-435 cells after 48 hrs by sulforhodamine B assay; assay type: functional, cell-based; conditions: MDA-MB-435, 48 h; for CC50: read-out: LC50 (the source's name)
UACC-62 = test: Growth inhibition of human UACC62 cells assessed as cell growth at 10 uM after 48 hrs by sulforhodamine B assay; assay type: functional; conditions: UACC-62, 48 h, read-out: Activity

## O=C(Nc1cccc(-n2cc(-c3ccncc3)c(-c3ccc(Cl)c(O)c3)n2)c1)c1ccc(N2CCOCC2)c(C(F)(F)F)c1
OVCAR-4
  growth at 10 µM: 108%
786-0 [1]
  GI50: 2.83 µM
  TGI: 12.5 µM
  CC50: 46.3 µM
K562 [2]
  GI50: 1.88 µM
  TGI: > 50 µM
  CC50: > 50 µM
M14
  growth at 10 µM: 22.7%
[3]
  growth at 10 µM: 15.5%
SK-OV-3
  growth at 10 µM: 74.2%
IGROV-1
  GI50: 9.42 µM
  LC50 (concentration killing 50% of cells): > 50 µM
  TGI: > 50 µM
MDA-MB-468
  GI50: 7.04 µM
  IC50: 7.04 µM
  TGI: 26.6 µM
  CC50: > 50 µM
MDA-MB-231 [4]
  GI50: 0.975 µM
  LC50: > 50 µM
  TGI: 15.6 µM
HCT-15
  GI50: 1.81 µM
  LC50: > 50 µM
  TGI: 25.3 µM
MDA-MB-231 [5]
  growth at 10 µM: 23.4%
SK-MEL-28
  GI50: 1.5 µM
  LC50: 42.9 µM
  TGI: 6.04 µM
NCI-H322M
  growth at 10 µM: 82.1%
HOP-62
  GI50: 9.38 µM
  TGI: > 50 µM
  CC50: > 50 µM
UO-31 [6]
  growth at 10 µM: 36.9%
UO-31 [7]
  GI50: 2.6 µM
  TGI: 34.3 µM
  CC50: > 50 µM
A498
  growth at 10 µM: 101%
786-0 [8]
  growth at 10 µM: 59.6%
LOX IMVI
  GI50: 1.64 µM
  LC50: 44.8 µM
  TGI: 7.3 µM
OVCAR-8
  growth at 10 µM: 37%
[9]
  GI50: 5.66 µM
  TGI: > 50 µM
  CC50: > 50 µM
SNB-19
  growth at 10 µM: 65.7%
K562 [10]
  growth at 10 µM: 7.96%
T47D [11]
  growth at 10 µM: 69.4%
MDA-MB-435 [12]
  growth at 10 µM: 35.2%
T47D [13]
  GI50: 35.9 µM
  TGI: > 50 µM
  CC50: > 50 µM
HL-60(TB)
  GI50: 3.81 µM
  TGI: > 50 µM
  CC50: > 50 µM
RPMI-8226
  GI50: 1.4 µM
  IC50: 1.4 µM
  TGI: 12.5 µM
  CC50: > 50 µM
DU-145
  growth at 10 µM: 52.7%
COLO 205
  GI50: > 50 µM
  LC50 (concentration killing 50% of cells): > 50 µM
  TGI: > 50 µM
ACHN
  growth at 10 µM: 36.6%
SF-295
  GI50: 1.71 µM
  IC50: 1.71 µM
  TGI: 7.55 µM
  CC50: 37 µM
MDA-MB-435 [14]
  GI50: 2.04 µM
  IC50: 2.04 µM
  TGI: > 50 µM
  CC50: > 50 µM
UACC-62
  growth at 10 µM: 49.2%

## O=C(Nc1cccc(-n2cc(-c3ccncc3)c(-c3ccc(Cl)c(O)c3)n2)c1)Nc1cccc(C(F)(F)F)c1
OVCAR-4
  growth at 10 µM: 41.5%
786-0 [1]
  GI50: 4.69 µM
  TGI: > 32.5 µM
  CC50: > 32.5 µM
K562 [2]
  GI50: 1.44 µM
  TGI: > 32.5 µM
  CC50: > 32.5 µM
M14
  growth at 10 µM: 16.6%
[3]
  growth at 10 µM: 29.4%
SK-OV-3
  growth at 10 µM: 21.2%
IGROV-1
  GI50: 1.64 µM
  LC50 (concentration killing 50% of cells): > 32.5 µM
  TGI: > 32.5 µM
MDA-MB-468
  GI50: 0.98 µM
  IC50: 0.98 µM
  TGI: 7.83 µM
  CC50: > 32.5 µM
MDA-MB-231 [4]
  GI50: 3.59 µM
  LC50: > 32.5 µM
  TGI: 26.8 µM
HCT-15
  GI50: 1.51 µM
  LC50: > 32.5 µM
  TGI: > 32.5 µM
MDA-MB-231 [5]
  growth at 10 µM: 21.3%
SK-MEL-28
  GI50: 4.11 µM
  LC50: > 32.5 µM
  TGI: > 32.5 µM
NCI-H322M
  growth at 10 µM: 48.2%
HOP-62
  GI50: 6.86 µM
  TGI: > 32.5 µM
  CC50: > 32.5 µM
UO-31 [6]
  growth at 10 µM: 24.8%
UO-31 [7]
  GI50: 1.86 µM
  TGI: > 32.5 µM
  CC50: > 32.5 µM
A498
  growth at 10 µM: 17.7%
786-0 [8]
  growth at 10 µM: 34.4%
LOX IMVI
  GI50: 2.53 µM
  LC50: 32.4 µM
  TGI: 9.58 µM
OVCAR-8
  growth at 10 µM: 10.6%
[9]
  GI50: 7.26 µM
  TGI: > 32.5 µM
  CC50: > 32.5 µM
SNB-19
  growth at 10 µM: 32.5%
K562 [10]
  growth at 10 µM: 13.4%
T47D [11]
  growth at 10 µM: 18.5%
MDA-MB-435 [12]
  growth at 10 µM: 15.6%
T47D [13]
  GI50: 2.47 µM
  TGI: > 32.5 µM
  CC50: > 32.5 µM
HL-60(TB)
  GI50: 1.45 µM
  TGI: > 32.5 µM
  CC50: > 32.5 µM
RPMI-8226
  GI50: 1.34 µM
  IC50: 1.34 µM
  TGI: > 32.5 µM
  CC50: > 32.5 µM
DU-145
  growth at 10 µM: 23.1%
COLO 205
  GI50: 7.9 µM
  LC50 (concentration killing 50% of cells): > 32.5 µM
  TGI: 23.8 µM
ACHN
  growth at 10 µM: 11.2%
SF-295
  GI50: 0.962 µM
  IC50: 0.96 µM
  TGI: 4.26 µM
  CC50: 29.2 µM
MDA-MB-435 [14]
  GI50: 1.49 µM
  IC50: 1.49 µM
  TGI: 12.6 µM
  CC50: > 32.5 µM
UACC-62
  growth at 10 µM: 10.4%
